Patent US20190314345A1, “CALCINEURIN INHIBITOR AND NON-STEROIDAL ANTI-INFLAMMATORY DRUG TO REDUCE RISK OF POST-IMAGING PANCREATITIS” (UNIVERSITY OF PITTSBURGH - OF THE COMMONWEALTH SYSTEM OF …, priority 2016, published 2019)
One block for each molecule: values may come before it.

Legend:
[1] = high-affinity Ca2+-sensing dye; cited from earlier work
AR42J cells = assay: Ca2+ signals (Fluo-4AM) in AR42J cells; assay type: cell-based; details: U73122 5 μM, 2-APB 100 μM
Procedure: FIG. 7A-7H. […] (A) Summation of whole cell tracings from AR42J cells loaded with Fluo-4AM and perifused with RC (iohexol; 10-25%). (B, D) Quantification of amplitude and area under the curve. (C) RC (25%)-induced acinar cell Ca^2+ signals were prevented by the PLC inhibitor U73122 (5 μM) and the IP3R inhibitor 2-APB (100 μM). (n=20-30 cells per condition). *, # P<0.05 relative to 10% RC or RC alone, respectively. AR42J cells were infected with Ad-NFAT-luciferase and stimulated with RC at (E) increasing concentrations. […] (n=3). *, #, P<0.05, relative to the control or RC alone, respectively.
Acinar cells were loaded at room temperature with the high-affinity Ca^2+-sensing dye Fluo-4AM (Kd=300 nM; Invitrogen). Acinar cells were plated on acid-washed glass coverslips and then mounted on a perifusion chamber. Thereupon, they were stimulated at room temperature with varying concentrations of RC (17-50%) diluted in HEPES buffer. Carbachol (1 mM) was given at the end of each experiment to confirm that the cells were intact and could mobilize intracellular Ca^2+ stores. A Zeiss LSM710 laser scanning confocal microscope was used with a […], 1.4 numerical aperture objective. […] Fluorescence from individual acinar cells was recorded. Analysis of recordings was performed using ImageJ software (NIH, Bethesda, Md.), and mean fluorescence over time in each region was graphed.

NF-κB = assay: NF-κB-luciferase activity assay in AR42J cells; assay type: cell-based; details: for effect on RC-induced NF-κB luciferase levels: U73122 5 μM, 2-APB 100 μM, BAPTA 64 μM
Procedure: AR42J cells were differentiated towards an acinar phenotype by administering dexamethasone (100 nM) for 48-72 hr^17. AR42J cells were infected with Ad-NF-κB luciferase 16 h prior to stimulation using a previously described method^12. Following a wash with DMEM/F12 medium, acinar cells were evenly distributed in a 48-well plate and incubated for 30 min at 37° C. They were incubated with RC at varying concentrations and times. NF-κB-luciferase was measured using a commercially available luciferase assay (Promega, Madison, Wis.). Briefly, cells were spun at 1,000 rpm for 5 min, washed with PBS, and lysed using reporter lysis 5× buffer (Promega, catalog no. E397A). Samples were vortexed and spun at 12,000×g for 2 min. The supernatant was plated, and luminescence was measured using a Synergy H1 plate reader (BioTek, Winooski, Vt.) and normalized to […].

calcineurin [2] = assay: NFAT-luciferase activity assay in mouse primary acinar cells; assay type: cell-based
Procedure: (§1) Acinar cells were infected with Ad-NFAT-luciferase following a previously described procedure^10, 15, 16. The construct includes a luciferase gene placed downstream of an IL-4 promoter which contains nine tandem NFAT binding sites^10. Acinar cells were incubated with the NFAT-driven luciferase adenovirus for 1.5 hr prior to stimulation. All of the stated inhibitors were added for 30 min prior to stimulation with RC. NFAT-luciferase was measured using the luciferase assay system. Briefly, cells were spun at 1,000 rpm for 5 min, washed with PBS, and lysed using reporter lysis 5× buffer (Promega #E397A, Madison, Wis.). Samples were vortexed and spun at 12,000 g for 2 min. Supernatant was plated, and luminescence was measured using a Synergy H1 plate reader (BioTek, Winooski, Vt.) and normalized to total protein.

primary acinar cells = assay: Cell necrosis assay (propidium iodide uptake) in primary acinar cells; assay type: cell-based, mouse; details: for effect on RC (12%)-induced acinar cell injury (PI uptake): 6 hr incubation, U73122 5 μM, 2-APB 100 μM, BAPTA 64 μM, IKK-2 20 μM, FK506 24 μM, CsA 16 μM
Procedure: Acinar cells were incubated in a 48-well plate with 50 μg/ml of propidium iodide (PI) for 30 min prior to addition of RC. Fluorescence was measured at 536 nm excitation and 617 nm emission wavelengths over time a time course of up to 6 hr. Fluorescence was measured after cell lysis with 0.5% Triton-X 100 was used to normalize the results relative to total DNA.

calcineurin [3] = assay: NFAT-luciferase activity assay in AR42J cells; assay type: cell-based; details: for effect on RC (6%)-induced NFAT-luciferase activity: pretreatment, FK506 24 μM, CsA 16 μM, U73122 5 μM, 2-APB 100 μM, BAPTA 64 μM
Procedure: as §1

PEP model in mice = assay: Intra-ductal RC infusion PEP model in mice: histological severity, serum amylase; assay type: in vivo, mouse
Source text: The procedure for retrograde infusion into the CBD and pancreatic duct has been described before^14. Briefly, Swiss Webster mice were anesthetized with isoflurane. A midline incision was made to reveal the abdominal cavity. The duodenum was flipped to reveal its distal side and held in place by ligatures. […] needle was inserted through the anti-mesenteric aspect of the duodenum to cannulate the CBD. A small bull dog clamp was applied to the distal CBD (near the duodenum) to prevent back flow of the infusate into the duodenal lumen and to hold the cannula in place. A larger bull dog clamp was applied to the proximal CBD (near the liver) to prevent infusion into the liver and thus to direct flow to the pancreatic duct. Total volumes of 50-100 μl of iohexol, iopamidol, or normal saline (NS) were infused at 10-20 μl per min for 5 min using a P33 perfusion pump (Harvard Apparatus, Holliston, Mass.). Upon completion of the infusion, the bull dog clamps were released. The exterior abdominal wound was closed using 7 mm wound clips, and a single injection of buprenorphine (0.075 mg/kg) was given immediately after the surgery. Mice recovered on a heating pad for 30 min after the procedure. They were given free access to food and water after the surgery. The pancreas, duodenum, and spleen were fixed at room temperature for 24 hr in 4% paraformaldehyde. Paraffin-embedded sections were stained with hematoxylin an eosin (HE) and graded using a 20× objective over 10 separate fields in a blinded fashion. Pancreas tissue was graded for edema, inflammatory infiltrate, and necrosis as described by Wildi et al.^67. Whole blood samples were centrifuged at 1500×g for 5 min at 4° C. Serum amylase was measured using a Phadebas kit (Amersham Pharmacia, Rochester N.Y.) as previously described^68.

[4] = system: mouse pancreatic acinar cells; assay: Ca2+ signals (Fluo-4AM) in mouse pancreatic acinar cells; assay type: cell-based; details: 25% and 33% RC; peak-plateau Ca2+ waves
Procedure: Acinar cells were loaded at room temperature with the high-affinity Ca^2+-sensing dye Fluo-4AM (Kd=300 nM; Invitrogen). Acinar cells were plated on acid-washed glass coverslips and then mounted on a perifusion chamber. Thereupon, they were stimulated at room temperature with varying concentrations of RC (17-50%) diluted in HEPES buffer. Carbachol (1 mM) was given at the end of each experiment to confirm that the cells were intact and could mobilize intracellular Ca^2+ stores. A Zeiss LSM710 laser scanning confocal microscope was used with a […], 1.4 numerical aperture objective. The dye was excited at 488 nm wavelength, and emission signals of >515 nm were collected every 2 sec. Fluorescence from individual acinar cells was recorded. Analysis of recordings was performed using ImageJ software (NIH, Bethesda, Md.), and mean fluorescence over time in each region was graphed.
Groups of pancreatic acinar cells were isolated as previously described 26, 69 with minor modifications. Briefly, the pancreas was removed, and then minced for 5 min in buffer containing 20 mM HEPES (pH 7.4), 95 mM NaCl, 4.7 mM KCl, 0.6 mM MgCl2, 1.3 mM CaCl2=, 10 mM glucose, and 2 mM glutamine, plus 1% BSA, 1×MEM nonessential amino acids (GIBCO/BRL), 200 units/ml type-4 collagenase (Worthington, Freehold, N.J.), and 1 mg/ml soybean trypsin inhibitor. The tissue was incubated for 30 min at 37° C. with shaking at 90 rpm. […]

pancreatic NF-κB = assay: Imaging pancreatic NF-κB bioluminescence in vivo; parameters: species or system mouse; details: 4 hr after surgery, region of the pancreas
Procedure: An AAV6-NF-κB-luciferase reporter was constructed, expanded in HEK293 cells, and purified as previously described^18-20, 39. A volume of 100 μl of virus (10^12 GCP/ml) was infused into the pancreaticobiliary duct at a rate of 10 μl/min using the same technique of RC infusion described above and recently published^21, 39. After a 5-week recovery from the surgery, mice underwent PEP induction with or without FK506 treatment. At varying time points after the surgery, ranging from 2 to 36 hr, bioluminescence signals were obtained by first giving a subcutaneous injection of luciferin (150 μg/g body weight) in the scruff of the neck 15 min before the start of imaging. The mice were briefly anesthetized with isoflurane and placed in the supine position in a bioluminescent imaging chamber (IVIS spectrum imager; Perkin Elmer, Waltham, Mass.) for 3-10 min. Average pixel intensity was measured from a pancreatic region of interest (in the upper abdomen). Raw time points from each mouse were normalized to its individual baseline intensity at time zero.

pancreatic acinar cells = assay: ATP level measurements in acinar cells; assay type: cell-based, mouse; details: RC, concentration dependent
Procedure: Following isolation, pancreatic acinar cells were cultured in DMEM/F12 Medium (0.5 ml/well of a 48-well plate) at 37° C. water bath and treated with RC±FK506. Cells were collected at indicated time points and lysed in 100 lysis buffer (100 mM Tris pH 7.75, 4 mM EDTA). ATP levels were measured from 20 μl aliquots of acinar cell lysates using the ENLITEN luciferase/luciferin reagent (Promega catalog no. FF2021).

calcineurin [5] = assay: NFAT-luciferase activity assay in human acinar cells; assay type: cell-based
Procedure: as §1

[6] = varying concentrations of iopamidol

Compound: CC(=O)OCOC(=O)CN(CC(=O)OCOC(C)=O)c1ccc(C)cc1OCCOc1cc(-c2c3cc(F)c(=O)cc-3oc3cc(OCOC(C)=O)c(F)cc23)ccc1N(CC(=O)OCOC(C)=O)CC(=O)OCOC(C)=O [Fluo-4AM]
- Kd [1]: 300 nM

Compound: NCCOB(c1ccccc1)c1ccccc1 [2-APB]
- effect on RC (25%)-induced acinar cell Ca2+ signals (AR42J cells): prevented
- effect on RC-induced NF-κB luciferase levels (NF-κB): reduced
- reduction of RC-induced luciferase rise (calcineurin [2]; 2-APB 100 μM, P<0.05): 47%
- effect on RC (12%)-induced acinar cell injury (PI uptake) (primary acinar cells): prevented
- effect on RC (6%)-induced NFAT-luciferase activity (calcineurin [3]): prevented

Compound: COc1ccc2c(c1)CC[C@@H]1[C@@H]2CC[C@]2(C)[C@@H](NCCCCCCN3C(=O)C=CC3=O)CC[C@@H]12 [U73122]
- effect on RC (25%)-induced acinar cell Ca2+ signals (AR42J cells): prevented
- effect on RC-induced NF-κB luciferase levels (NF-κB): reduced
- effect on RC (12%)-induced acinar cell injury (PI uptake) (primary acinar cells): prevented
- effect on RC (6%)-induced NFAT-luciferase activity (calcineurin [3]): prevented

Compound: OC[C@@H](O)[C@@H](O)[C@H](O)[C@H](O)CO [mannitol]
- NF-κB increase at equimolar concentrations (NF-κB; osmolality control, equimolar to RC): failed to cause an increase

Compound: CCCCCCCCCCC[C@@H](C[C@@H]1OC(=O)[C@H]1CCCCCC)OC(=O)[C@H](CC(C)C)NC=O [Orlistat]
- effect of pretreatment on RC-induced NF-κB activation (NF-κB; NAC 2-12 mM, Orlistat 50-100 μM, RC 16%): did not significantly reduce

- severity of pancreatitis at pH 6 compared to pH 7 (PEP model in mice; RC buffered with 10 mM HEPES, pH clamped at 6): no increased severity
- increase in histological severity above the intra-ductal NS sham control (PEP model in mice; intra-ductal RC, doubled rate and volume, 24 hr after procedure): 59%
- serum amylase increase (PEP model in mice; intra-ductal RC, 6 hr post-procedure): at least 50%
- ATP levels (pancreatic acinar cells): depletion
Compound: CC(=O)N(CC(O)CO)c1c(I)c(C(=O)NCC(O)CO)c(I)c(C(=O)NCC(O)CO)c1I (stereo not drawn) [RC, iohexol]
- increase in NF-κB luciferase above baseline (NF-κB; 25% RC for 10 min, followed by washout): 5 fold
- increase in NF-κB luciferase above baseline (NF-κB; 25% RC for 60 min, P<0.05): 58 fold
- increase in NF-κB luciferase above baseline (NF-κB; 25% RC for 90 min, P<0.05): 59 fold
- increase in NF-κB luciferase above baseline (NF-κB; 25% RC for 120 min, P<0.05): 112 fold
- rise in NF-κB (NF-κB; at 350 mOsm/L): 300 fold
- Ca2+ signal amplitude above baseline [4]: 400%
- peak in NF-κB luciferase compared to NS sham (pancreatic NF-κB): 13 fold
- PI uptake (primary acinar cells; RC exposure for 6 hr): concentration-dependent increase

Compound: COc1ccc2c(c1)c(CC(=O)O)c(C)n2C(=O)c1ccc(Cl)cc1 [indomethacin]
- effect of FK506 compared with therapeutic indomethacin on RC-induced pancreatitis (PEP model in mice; FK506 1 mg/kg, indomethacin 7 mg/kg IP after RC infusion): as robust

Compound: CC(=O)OCOC(=O)CN(CC(=O)OCOC(C)=O)c1ccccc1OCCOc1ccccc1N(CC(=O)OCOC(C)=O)CC(=O)OCOC(C)=O [BAPTA-AM]
- effect on RC-induced NF-κB luciferase levels (NF-κB): reduced
- effect on RC (25%)-induced NFAT-luciferase activity (calcineurin [5]): prevented
- effect on RC-induced rise in NFAT-luciferase (calcineurin [2]; 30 min pre-treatment, FK506 24 μM, CsA 16 μM, BAPTA-AM 64 μM): completely reduced
- effect on RC (12%)-induced acinar cell injury (PI uptake) (primary acinar cells): prevented
- effect on RC (6%)-induced NFAT-luciferase activity (calcineurin [3]): prevented

- induction of pancreatitis (PEP model in mice; intra-ductal infusion, 24 hr): induces pancreatitis
Compound: C[C@H](O)C(=O)Nc1c(I)c(C(=O)NC(CO)CO)c(I)c(C(=O)NC(CO)CO)c1I [iopamidol]
- NF-κB activation (NF-κB; [6]): concentration-dependent
- NFAT activation (calcineurin [3]; [6]): concentration-dependent
